Key:
PPARα = target: T1, PPARα (Homo sapiens, UniProt Q07869); test: PPARα ligand activity, GAL4-PPARα reporter luciferase assay in CV-1 cells; format: cell-based; details: 24 hr incubation, KetoA and HYA each at 30 μM, other fatty acids by a similar method
T1 construct: expressed in transfected cells; host or cells: CV-1 (African green monkey kidney)
T1 sequence (Q07869 239-466 limits assumed): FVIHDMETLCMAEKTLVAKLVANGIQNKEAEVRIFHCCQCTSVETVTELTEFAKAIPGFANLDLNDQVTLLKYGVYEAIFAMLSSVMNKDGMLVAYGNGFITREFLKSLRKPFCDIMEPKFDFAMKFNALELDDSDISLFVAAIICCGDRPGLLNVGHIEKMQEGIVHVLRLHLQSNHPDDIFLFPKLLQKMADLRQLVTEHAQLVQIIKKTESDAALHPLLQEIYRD
Experimental: (§1) To evaluate the function of oxo fatty acid and the like, PPARα, γ-activating action was measured first. The measurement was performed in reference to Nobuyuki Takahashi et al., FEES Letters 514 (2002) p. 315-322, “Dual action of isoprenols from herbal medicines on both PPARgamma and PPARalpha in 3T3-L1 adipocytes and HepG2 hepatocytes.”, the section of Materials and Methods “Reporter plasmids and luciferase assays”. To be specific, a plasmid containing DNA encoding a fused protein of PPARα, γ ligand binding region and GAL4 DNA binding region (pM-hPPARα or pM-hPPARγ), a reporter plasmid containing GAL4 binding DNA sequence linked to luciferase (p4xUASg-tk-luc), and internal control (pRL-CMV) to standardize transfection efficiency were introduced into CV-1 cell derived from the kidney of African green monkey. The ligand described below was added to the cells and, after incubation for 24 hr, luciferase activity was measured. As a ligand, KetoA and HYA were each added at 30 μM.
(§2) The concentration of the sample was adjusted with ethanol. Ethanol was used as a negative control, […], and GW7647 (10 nM) and Troglitazone (5 μM) were used as […].

LXR = target: T2, LXR (Homo sapiens, UniProt Q13133); test: Antagonizing action on LXR by luciferase assay; format: cell-based; details: overall finding from SREBP-1c, SREBP-1, SCD-1, FAS, ACC1, 2, triacylglycerol and LXR luciferase measurements in HepG2 cells
T2 construct: expressed in transfected cells; host or cells: HepG2 (human liver cancer-derived)
T2 sequence (Q13133 1-447): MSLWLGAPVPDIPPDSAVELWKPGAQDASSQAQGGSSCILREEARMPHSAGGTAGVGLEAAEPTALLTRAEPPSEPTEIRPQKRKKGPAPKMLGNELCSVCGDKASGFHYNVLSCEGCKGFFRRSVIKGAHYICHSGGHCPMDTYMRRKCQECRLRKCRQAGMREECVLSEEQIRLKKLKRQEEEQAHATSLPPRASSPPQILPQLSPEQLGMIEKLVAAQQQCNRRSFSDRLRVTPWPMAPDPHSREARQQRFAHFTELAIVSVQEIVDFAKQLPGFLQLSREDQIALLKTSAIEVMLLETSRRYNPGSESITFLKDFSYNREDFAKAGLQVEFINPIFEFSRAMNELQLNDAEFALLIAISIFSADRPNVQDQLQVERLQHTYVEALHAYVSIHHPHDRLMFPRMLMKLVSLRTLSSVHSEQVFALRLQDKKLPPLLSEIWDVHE
Experimental: In addition, the protein expression level of immature and mature SREBP-1c was measured. Cells treated as mentioned above were dispersed in buffer A (250 mM sucrose, 10 mM HEPES-KOH, 10 mM KCl, 1.5 mM MgCl2, 1 mM EDTA-Na, 1 mM EGTA-Na, pH 7.6) containing a protease inhibitor, passed 20 times through a 23 gauge injection needle, and centrifuged (1,000×g, 4° C., 5 min) to separate into supernatant 1 and precipitate 1. The precipitate 1 was re-dissolved in buffer B (20 mM HEPES-KOH, 0.42 M NaCl, 2.5% glycerol, 1.5 mM MgCl2, 1 mM EDTA-Na, 1 mM EGTA-Na, pH 7.6), and centrifuged (10^5×g, 4° C., 15 min). The obtained supernatant 2 was used as a nuclear fraction (including mature form). The supernatant 1 was further centrifuged (10^5×g, 4° C., 15 min), and the obtained precipitate 2 was dissolved in cell lysate (10 mM Tris-HCl, 100 mM NaCl, 1% SDS, 1 mM EDTA-Na, 1 mM EGTA-Na) and used as a membrane fraction (including immature form). Using these as samples, measurement was performed by Western blot method using anti-SREBP-1 polyclonal antibody (Santa Cruz). Using Dual luciferase system (Promega), antagonizing action on LXR was evaluated by luciferase assay. p3xIR1-tk-Luc, pCMX-hLXRa, pRL-CMX were introduced into HepG2 cell. After culture in a 0.1% BSA-containing serum-free medium containing various fatty acids and T0901317 for 24 hr, the luciferase activity was measured.

PPARγ = target: T3, PPARγ (Homo sapiens, UniProt P37231); test: PPARγ ligand activity, GAL4-PPARγ reporter luciferase assay in CV-1 cells; format: cell-based; details: 24 hr incubation, KetoA and HYA each at 30 μM, other fatty acids by a similar method
T3 construct: expressed in transfected cells; host or cells: CV-1 (African green monkey kidney)
T3 sequence (P37231 238-503 limits assumed): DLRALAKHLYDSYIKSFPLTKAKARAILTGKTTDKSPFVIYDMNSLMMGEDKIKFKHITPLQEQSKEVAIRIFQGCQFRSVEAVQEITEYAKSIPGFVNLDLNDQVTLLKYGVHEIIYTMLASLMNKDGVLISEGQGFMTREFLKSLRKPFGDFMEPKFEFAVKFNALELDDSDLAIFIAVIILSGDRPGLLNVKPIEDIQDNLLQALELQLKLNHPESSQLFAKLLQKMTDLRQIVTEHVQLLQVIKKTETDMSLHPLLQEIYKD
Experimental: as §1, §2

HepG2 cells [1] = test: Intracellular triacylglycerol accumulation by LXR agonist; format: cell-based, human; details: 10 nM T0901317 alone, 24 hr
Experimental: HepG2 cells (2.0×10^5 cells/mL) were cultured in DMEM medium containing 10% FES for 24 hr, and the medium was exchanged with 0.1% BSA-containing DMEM medium containing 10 nM LXR agonist T0901317 (Cayman Chemicals) and 60 μM various fatty acid. After culture for 24 hr, the cells were recovered, and total RNA was extracted using Sepasol reagent (Nacalai Tesque). After DNase treatment, reverse transcription was performed using SuperScriptII (Invitrogen) to give a cDNA solution. Using SYBR Green Mix (Bio-Rad, Richmond, Calif.) and gene-specific primer (Table 1), real-time PCR was performed as follows.
1. Reaction at 96° C., 15 min, 2. reaction at 96° C., 15 sec, 3. reaction at 60° C. for 30 sec, 4. measurement of fluorescence, 5. 2-4 were repeated 40 times, 6. the melting curve was measured from 65° C. to 95° C. at 0.4° C. intervals. As the internal standard, 18S rRNA was used. The genes involved in the fatty acid synthesis as measured were Sterol regulatory element binding protein-1c (SREBP-1c), Stearoyl coenzyme A desaturase-1 (SCD-1), Fatty acid synthase (FAS), and Acetyl CoA carboxylase-1 and -2 (ACC-1, 2). As for the amount of accumulated intracellular TG, the lipid was extracted with chloroform-methanol, and quantified by triglyceride-′E Test Wako (Wako Pure Chemical Industries, Ltd.).

HepG2 cells [2] = test: Effect on LXR agonist-induced expression of fatty acid synthesis genes, real-time PCR; format: cell-based, human; details: 10 nM T0901317 alone, 24 hr

| Structure (SMILES) | PPARα agonist activity (relative luciferase activity) (PPARα) | lipid synthesis suppressive action by the antagonizing action on LXR (LXR) | PPARγ agonist activity (relative luciferase activity) (PPARγ) | intracellular triacylglycerol level (HepG2 cells [1]) | expression of SREBP-1c mRNA (HepG2 cells [2]) |
| --- | --- | --- | --- | --- | --- |
| CCCCC/C=C\CC(O)CC/C=C\CCCCC(=O)O (stereo not drawn) [γHYA, 10-hydroxy-cis-6,cis-12-octadecadienoic acid] | PPARα agonist activity | lipid synthesis suppressive action | – | – | – |
| CCCCCCCCC(O)CCCCCCCCC(=O)O (stereo not shown) [HYB, 10-hydroxyoctadecanoic acid] | PPARα agonist activity | lipid synthesis suppressive action | – | – | – |
| CCCCCCC(O)CC(O)CCCCCCCCC(=O)O (stereo not shown) [rHYA, 10,12-dihydroxyoctadecanoic acid] | PPARα agonist activity | – | – | – | – |
| CCCCCCC(=O)CCCCCCCCCCC(=O)O [rKetoB, 12-oxooctadecanoic acid] | PPARα agonist activity | lipid synthesis suppressive action | – | – | – |
| CCCCCC/C=C/C(=O)CCCCCCCCC(=O)O [KetoC, 10-oxo-trans-11-octadecenoic acid] | PPARα and γ agonist activity | – | PPARα and γ agonist activity | – | – |
| CCCCCCC(O)CCCCCCCCCCC(=O)O (stereo not shown) [rHYB, 12-hydroxyoctadecanoic acid] | PPARα agonist activity | lipid synthesis suppressive action | – | – | – |
| CCCCC/C=C\CC(=O)CC/C=C\CCCCC(=O)O [γKetoA, 10-oxo-cis-6,cis-12-octadecadienoic acid] | – | lipid synthesis suppressive action | PPARγ agonist activity | – | – |
| CC/C=C\C/C=C\CC(O)CCCCCCCCC(=O)O (stereo not drawn) [αHYA, 10-hydroxy-cis-12,cis-15-octadecadienoic acid] | PPARα agonist activity | – | – | – | – |
| CCCCCC[C@@H](O)C/C=C\CCCCCCCC(=O)O [RA, ricinoleic acid] | PPARα agonist activity | lipid synthesis suppressive action | – | – | – |
| CC/C=C\CC/C=C/C(=O)CCCCCCCCC(=O)O [αKetoC, 10-oxo-trans-11,cis-15-octadecadienoic acid] | PPARα and γ agonist activity | – | PPARα and γ agonist activity | – | – |
| CCCCCCCCC(=O)CCCCCCCCC(=O)O [KetoB, 10-oxooctadecanoic acid] | PPARα agonist activity | – | – | – | – |
| CC/C=C\C/C=C\CC(=O)CCCCCCCCC(=O)O [αKetoA, 10-oxo-cis-12,cis-15-octadecadienoic acid] | – | lipid synthesis suppressive action | PPARγ agonist activity | – | – |
| CCCCCC/C=C/C(=O)CC/C=C\CCCCC(=O)O [γKetoC, 10-oxo-cis-6,trans-11-octadecadienoic acid] | PPARα and γ agonist activity | – | PPARα and γ agonist activity | – | – |
| O=S(=O)(c1ccccc1)N(CC(F)(F)F)c1ccc(C(O)(C(F)(F)F)C(F)(F)F)cc1 [T0901317, reference compound] | – | – | – | increased | about 7 fold |

From US9707200B2, “Metabolism-improving agent comprising rare fatty acid” (KYOTO UNIVERSITY, priority 2012, dated 2017)
